Article PMC6369240, “Biological evaluation and structure activity relationship of 9-methyl-1-phenyl-9H-pyrido[3,4-b]indole derivatives as anti-leishmanial agents” (Bioorganic Chemistry, 2019)

Key:
[1] = HeLa cell cytotoxicity, Alamar blue assay; format: cell-based; settings: human; HeLa cells, ~65 h incubation plus 5 h Alamar Blue
Description: HeLa cell cytotoxicity studies were carried out as described previously. Briefly, the cells were cultured in DMEM supplemented with 10% fetal calf serum and 2 mM L-glutamine. Cells were plated at initial cell concentration of 2 × 10^4 cells/well and incubated with the compounds for ∼65 h prior to addition of Alamar Blue solution for further 5 h.

[2] = tested on: L. infantum JPCM5 MCAN/ES/98/LLM-87 promastigotes; test: L. infantum promastigote assay (Alamar blue); format: cell-based, Leishmania infantum; settings: for S.I (CC50/IC50), L. infantum promastigote: HeLa CC50 / L. infantum promastigote EC50; for EC50: Leishmania infantum, 72 h, Alamar blue
Description: (§1) Anti-leishmanial activity of these analogues was determined by evaluating their inhibition activity against both promastigote, amastigote forms of Leishmania infantum and Leishmania donovani strains. […] Anti-leishmanial drugs miltefosine and pentamidine were used as standards for comparison purpose.
Anti-promastigote activity of these reported β-carboline derivatives was determined by Alamar blue assay method.
(§2) L. donovanipromastigotes were cultured at 37 °C in M199 medium supplemented with 10% heat-inactivated fetal calf serum. L. infantum JPCM5 MCAN/ES/98/LLM-87 promastigotes were cultured at 26 °C in modified Eagle’s medium (HOMEM). Parasites were incubated with serial dilutions of compounds for 72 h, followed by Alamar blue-based assay as previously described.

[3] = tested on: L. donovani promastigotes; test: L. donovani promastigote assay (Alamar blue); format: cell-based, Leishmania donovani; settings: for S.I (CC50/IC50), L. donovani promastigote: HeLa CC50 / L. donovani promastigote EC50; for EC50: Leishmania donovani, 72 h, Alamar blue
Description: as §1
L. donovani promastigote inhibition potency of these reported β-carboline derivatives was determined by Alamar blue assay method.
as §2

[4] = tested on: L. donovani LdBOB axenic amastigotes; test: L. donovani axenic amastigote assay (Alamar blue); format: cell-based, Leishmania donovani; settings: for EC50: 72 h, Alamar blue; for S.I (CC50/IC50), L. donovani axenic amastigote: HeLa CC50 / L. donovani axenic amastigote EC50
Description: (§3) L. donovaniLdBOB axenic amastigotes or L. infantum JPCM5 MCAN/ES/98/LLM-87 were cultured at 37 °C in modified Eagle’s medium (HOMEM; L. infantum) and axenic amastigotes were incubated for 72 h with compounds, followed by Alamar blue-based assay as previously described.

[5] = tested on: L. donovani LdBOB intracellular amastigotes in PMA differentiated THP-1 cells; test: Intra macrophage L. donovani (amastigote) assay in THP-1 cells; format: cell-based, Leishmania donovani; settings: for S.I (CC50/IC50), L. donovani intracellular amastigote: HeLa CC50 / L. donovani intracellular amastigote EC50; for EC50: THP-1 macrophages, 72 h, microscopy readout
Description: Although, axenic amastigotes assay most commonly used to screen new leishmanial agents are different from intracellular amastigotes in terms of protein expression and drug susceptibility. […] THP-1 (human monocytic leukemia) cells were a kind gift from Dr Susan Wylie (Dundee) and maintained in minimal essential medium plus 10% (vol/vol) FBS. […] Briefly, THP-1 cells (20,000 per well, 200 μL) were plated into 96 well plates in presence of 10 nM PMA and incubated at 37 °C in 5% CO2 atmosphere for 75 h. […] Any remaining extracellular amastigotes were removed and the adhered cells were washed with the same supplemented PBS solution as above. Pre-aliquoted compounds in a serial dilution were added from another plate, such that the total well volume was 200 μL and incubated for further 72 h. Cells were fixed with 100% methanol, stained with Giemsa and examined microscopically.

[6] = tested on: L. infantum JPCM5 MCAN/ES/98/LLM-87 axenic amastigotes; test: L. infantum axenic amastigote assay (Alamar blue); format: cell-based, Leishmania infantum; settings: for S.I (CC50/IC50), L. infantum axenic amastigote: HeLa CC50 / L. infantum axenic amastigote EC50; for EC50: Leishmania infantum, 72 h, Alamar blue
Description: Alamar blue assay method was used to determine inhibition potential of these β-carboline derivatives against (human life stage forms) axenic amastigotes.
as §3

[7] = Leishmania donovani, THP-1, 72 h

Row | SMILES | CC50 [1] [µM] | S.I (CC50/IC50), L. infantum promastigote [2] | EC50 [2] [µM] | S.I (CC50/IC50), L. donovani promastigote [3] | EC50 [3] [µM] | melting point [°C] | EC50 [4] [µM] | S.I (CC50/IC50), L. donovani axenic amastigote [4] | EC50 ([4]; Leishmania donovani) [µM] | S.I (CC50/IC50), L. donovani intracellular amastigote [5] | EC50 [5, 7] [µM] | S.I (CC50/IC50), L. infantum axenic amastigote [6] | EC50 [6] [µM] | EC50 [5] [µM]
1 | COc1cccc(N2CCN(C(=O)c3cc4c5ccccc5n(C)c4c(-c4ccccc4)n3)CC2)c1 [7e, (4-(3-methoxyphenyl)piperazin-1-yl)(9-methyl-1-phenyl-9H-pyrido[3,4-b]indol-3-yl)methanone] | > 500 | >6.9 | 72.4 ± 6.7 | >17.5 | 28.5 ± 1.8 | 196 to 198 |  |  |  |  |  |  |  | 
2 | Cn1c2ccccc2c2cc(C(=O)N3CCN(Cc4ccccc4)CC3)nc(-c3ccccc3)c21 [7n, (4-benzylpiperazin-1-yl)(9-methyl-1-phenyl-9H-pyrido[3,4-b]indol-3-yl)methanone] | > 500 | >24.5 | 20.4 ± 1.4 | >109.4 | 4.57 ± 0.24 | 158 to 160 | 3.5 ± 0.2 | 142.9 | 2.2 | 89.3 | 5.6 ± 0.9 |  |  | 
3 | COc1ccc(N2CCN(C(=O)c3cc4c5ccccc5n(C)c4c(-c4ccccc4)n3)CC2)cc1 [7d, (4-(4-methoxyphenyl)piperazin-1-yl)(9-methyl-1-phenyl-9H-pyrido[3,4-b]indol-3-yl)methanone] | > 500 | >314.5 |  | >549.5 | 0.91 ± 0.09 | 170 to 172 | 0.9 ± 0.1 | 555.6 | 0.91 | 384.6 | 1.4 | >357.1 | 1.4 ± 0.1 | 1.3 ± 0.1
4 | Cc1ccccc1N1CCN(C(=O)c2cc3c4ccccc4n(C)c3c(-c3ccccc3)n2)CC1 [7c, (9-methyl-1-phenyl-9H-pyrido[3,4-b]indol-3-yl)(4-o-tolylpiperazin-1-yl)methanone] | > 500 | >134.0 | 3.73 ± 0.28 | >52.9 | 9.45 ± 0.72 | 148 to 150 |  | 94.3 | 5.3 ± 0.4 | 53.2 | 7.8 | >192.3 | 2.6 ± 0.2 | 9.4 ± 1.3
5 | Cn1c2ccccc2c2cc(C(=O)N3CCN(c4ccc(F)cc4)CC3)nc(-c3ccccc3)c21 [7k, (4-(4-fluorophenyl)piperazin-1-yl)(9-methyl-1-phenyl-9H-pyrido[3,4-b]indol-3-yl)methanone] | > 500 | >29.1 | 17.2 ± 0.82 | >40.3 | 12.4 ± 1.4 | 188 to 190 |  | 53.8 | 9.3 ± 0.5 | 49.5 | 10.1 ± 1.1 | >33.3 | 15 ± 1.3 | 
6 | Cn1c2ccccc2c2cc(C(=O)N3CCN(c4cccc(Cl)c4Cl)CC3)nc(-c3ccccc3)c21 [7m, (4-(2,3-dichlorophenyl)piperazin-1-yl)(9-methyl-1-phenyl-9H-pyrido[3,4-b]indol-3-yl)methanone] | > 500 | >5.3 | 93 ± 7.5 | >4.3 | 118 ± 6.4 | 166 to 168 |  |  |  |  |  |  |  | 
7 | Cn1c2ccccc2c2cc(C(=O)N3CCN(c4ccccc4Cl)CC3)nc(-c3ccccc3)c21 [7i, (4-(2-chlorophenyl)piperazin-1-yl)(9-methyl-1-phenyl-9H-pyrido[3,4-b]indol-3-yl)methanone] | > 500 | >23.0 | 21.7 ± 0.6 | >32.9 | 15.2 ± 0.85 | 152 to 154 |  | 25.8 | 19.4 ± 1.2 | 22.7 | 22 ± 2.1 |  |  | 
8 | Cn1c2ccccc2c2cc(C(=O)N3CCN(c4ccccc4F)CC3)nc(-c3ccccc3)c21 [7l, (4-(2-fluorophenyl)piperazin-1-yl)(9-methyl-1-phenyl-9H-pyrido[3,4-b]indol-3-yl)methanone] | > 500 | >7.7 | 64.9 ± 5.7 | >5.8 | 85.9 ± 7.3 | 168 to 170 |  |  |  |  |  |  |  | 
9 | COc1ccccc1N1CCN(C(=O)c2cc3c4ccccc4n(C)c3c(-c3ccccc3)n2)CC1 [7f, (4-(2-methoxyphenyl)piperazin-1-yl)(9-methyl-1-phenyl-9H-pyrido[3,4-b]indol-3-yl)methanone] | > 500 | >36.2 | 13.8 ± 0.9 | >59.4 | 8.42 ± 0.45 | 168 to 170 |  | 78.1 | 6.4 ± 0.2 | 42.4 | 11.8 ± 0.7 | >32.7 | 15.3 ± 1.1 | 
10 | Cn1c2ccccc2c2cc(C(=O)N3CCN(c4ccccn4)CC3)nc(-c3ccccc3)c21 [7p, (9-methyl-1-phenyl-9H-pyrido[3,4-b]indol-3-yl)(4-(pyridin-2-yl)piperazin-1-yl)methanone] | 273 ± 21.6 | 5.97 | 45.7 ± 3.3 |  | 8.5 ± 0.75 | 174 to 176 |  | 22.2 | 12.3 ± 0.6 | 34.6 | 9.4 |  |  | 7.9 ± 0.3
11 | N=C(N)c1ccc(OCCCCCOc2ccc(C(=N)N)cc2)cc1 [Pentamidine, reference compound] |  |  | 8.31 ± 0.18 |  | 6.4 ± 0.11 |  |  |  | 1.6 ± 0.1 |  | 23.7 ± 1.8 |  | 2.7 ± 0.4 | 
12 | Cn1c2ccccc2c2cc(C(=O)N3CCN(c4ccncc4)CC3)nc(-c3ccccc3)c21 [7o, (9-methyl-1-phenyl-9H-pyrido[3,4-b]indol-3-yl)(4-(pyridin-4-yl)piperazin-1-yl)methanone] | 29.7 ± 1.5 | 0.48 |  | 1.52 | 19.5 ± 2.8 | 198 to 200 |  | 2.1 | 13.9 ± 0.4 | 4.1 | 7.9 |  |  | 7.2 ± 0.5
13 | Cc1ccc(N2CCN(C(=O)c3cc4c5ccccc5n(C)c4c(-c4ccccc4)n3)CC2)cc1 [7b, (9-methyl-1-phenyl-9H-pyrido[3,4-b]indol-3-yl)(4-p-tolylpiperazin-1-yl)methanone] | > 500 | >20.5 | 24.3 ± 1.3 | >35.2 | 14.2 ± 1.2 | 188 to 190 |  | 86.2 | 5.8 ± 0.3 | 63.3 | 7.2 |  |  | 7.9 ± 0.4
14 | Cn1c2ccccc2c2cc(C(=O)N3CCN(c4cccc(Cl)c4)CC3)nc(-c3ccccc3)c21 [7h, (4-(3-chlorophenyl)piperazin-1-yl)(9-methyl-1-phenyl-9H-pyrido[3,4-b]indol-3-yl)methanone] | > 500 | >9.8 |  | >125 | 4 ± 0.25 | 130 to 132 | 2.2 ± 0.1 | 227.3 | 3.5 | 64.1 | 7.9 |  |  | 7.8 ± 1.3
